Experimental findings from ChEMBL document CHEMBL1148571, “Synthesis of 131I-labeled glucose-conjugated inhibitors of O6-methylguanine-DNA methyltransferase (MGMT) and comparison with nonconjugated inhibitors as potential tools for in vivo MGMT imaging” (J Med Chem, 2006) are described below.

The target of this assay is T1, Methylated-DNA--protein-cysteine methyltransferase (Homo sapiens) (UniProt P16455).
T1 sequence (whole entry): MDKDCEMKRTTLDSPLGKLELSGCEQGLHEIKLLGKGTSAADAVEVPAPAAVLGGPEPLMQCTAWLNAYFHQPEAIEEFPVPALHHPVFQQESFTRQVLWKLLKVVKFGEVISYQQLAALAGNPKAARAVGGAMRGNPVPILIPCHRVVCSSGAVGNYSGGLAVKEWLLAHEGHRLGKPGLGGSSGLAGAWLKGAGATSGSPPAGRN
Nature of the assay: Binding to human MGMT. The settings on record: tested as the 131I-labelled form.

`Nc1nc(OCc2cccc(I)c2)c2[nH]cnc2n1`: the Activity amounted to 97%.

Molecule `Nc1nc(OCc2ccc(I)s2)c2[nH]cnc2n1` came in with an Activity of 80%.
